Patent US20250011798A1, “[…] PRODUCTION” (ModernaTX, Inc., priority 2021, published 2025)

What was measured:
[1] = system: tolC mutant strain (tolC::amber, Strain 4); experiment: Toxin sensitivity of the tolC::amber mutant strain; format: cell-based, E. coli; settings: low concentrations; irrespective of the growth media
Text: The TAG amber mutation was introduced into the tolC ORF a plasmid DNA production strain, Strain 4 (FIG. 2). TolC is the major outer membrane efflux pump component of E. coli. It is not an essential gene, but it is necessary for the efflux of many toxins, and a tolC knockout is lethal at elevated levels. The tolC mutant strain generated by the tolC::amber mutation was therefore hypersensitive to many toxins, such as low concentrations of nalidixic acid, irrespective of the growth media. While a tolC mutant has hypersensitivity to toxins, it can be cultured normally in rich media such as LB or Terrific Broth, which allows for the generation of competent cells that may be used for DNA synthesis in production.

[2] = system: E. coli strains tolC::K3_amber (K3) and tolC::H342_amber (H342); experiment: Growth of transformed tolC::amber E. coli strains over 24 hours in media containing kanamycin or deoxycholate; format: cell-based; settings: K3 and H342 strains with control luciferase plasmid, TBAF++ media containing deoxycholate (DOC 150), 37° C., FIGS. 3C-3D
Description: It was evaluated whether plasmid-borne expression of a mutant tRNA with an anticodon that is complementary to the tolC amber mutation would allow for expression of full-length TolC protein, and therefore allow the strain to grow in the presence of an otherwise lethal concentration of nalidixic acid (FIG. 2). In this case, a histidine tRNA, hisR, was modified with an anticodon loop that is complementary to the tolC amber STOP codon, UAG on RNA, which is encoded by TAG on DNA. Mutant E. coli strains were generated by introducing either a tolC::K3_amber (referred to as “K3”) or tolC::H342_amber (referred to as “H342”) amber mutation into the genome (FIG. 3A). Introduction of a STOP codon at an early codon of the open reading frame prevents the translation of non-functional TolC peptides with intact leader sequences, which would otherwise be translocated across the inner cell membrane into the periplasmic space or outer membrane. Each strain also contained codon-optimized tolC coding sequences. Both strains were transformed with a plasmid encoding either i) an amber suppressor tRNA that carries histidine (hisR), or ii) luciferase, as a control plasmid. Both plasmids carried a kanamycin-resistance marker to allow for plasmid maintenance during growth. […]

Compound	Sensitivity of the tolC mutant strain to the toxin [1]	Effect on growth of strains not expressing the HisR tRNA [2]
CCn1cc(C(=O)O)c(=O)c2ccc(C)nc21 [nalidixic acid]	hypersensitive	–
deoxycholate [DOC 150]	–	lethal
